The nature of series [1]: Human microsomal stability assay. Format: in vitro ADME. As to conditions: human liver microsomes 0.5 mg/mL, 1 μM test compound, 37° C., pH 7.4. The method, then: Human liver microsomes (Cat. NO.: 452117, Corning, USA) were preincubated with test compound for 10 minutes at 37° C. in 100 mM potassium phosphate buffer, pH 7.4. The reactions were initiated by adding NADPH regenerating system. The final incubation mixtures contained 1 μM test compound, 0.5 mg/mL liver microsomal protein, 1 mM MgCl2, 1 mM NADP, 1 unit/mL isocitric dehydrogenase and 6 mM isocitric acid in 100 mM potassium phosphate buffer, pH 7.4. After incubation times of 0, 3, 6, 9, 15 and 30 minutes at 37° C., 300 μL of cold ACN (including internal standard) was added to 100 μL incubation mixture to terminate the reaction. Following precipitation and centrifugation, 100 μL supernatant will be taken out and added 300 μL water. The amount of compound remaining in the samples was determined by LC-MS/MS. Controls of no NADPH regenerating system at zero and 30 minutes were also prepared and analyzed. The results were categorized as: low (<7.0 mL/min/kg), medium (7.0-16.2 mL/min/kg) and high (16.2-23.2 mL/min/kg).

Series [2] has as its target T1, CD73 (Homo sapiens (Human), UniProt P21589). Put plainly: CD73 potency assay using LC/MS (enzymatic). It counts as biochemical. As to conditions: 0.05 nM recombinant CD73 protein, LC/MS adenosine readout; read-out: Enzymatic IC50 against CD73. The procedure: The purpose of this assay is to identify and characterize inhibitors of CD73 enzymatic activity. […] 10 μL of enzyme working solution (containing 0.05 nM recombinant CD73 protein, 10 mM Tris pH 7.5, 100 mM NaCl, 0.01% BSA, 0.2 mM Octyl glucoside) was added to the assay plate and incubated with compounds for 15 minutes at room temperature. After adding 15 μL of AMP working solution (Containing 10 mM Tris pH 7.5, 100 mM NaCl, 0.01% BSA, 0.2 mM Octyl glucoside, with 1000 μM of AMP final concentration) and incubate for 10 min at room temperature. […] After centrifugation, 75 μL of the mixture was transferred to a new 384-well plate for LC/MS analysis.
Samples from the 384-well plates, were loaded onto an autosampler deck, then injected with ADDA-LC-MS/MS. The aqueous mobile phase is 0.1% formic acid in water. The organic mobile phase is 0.1% formic acid in acetonitrile. Flow rate is maintained at 0.8 mL/minute using Shimadzu pumps. The column is ACE 5 Phenyl, 50×2.1 mm. The analysis was performed on a SCIEX triple quadrupole mass spectrometer operating in positive ion mode. The effluent from the HPLC column was directly introduced into the electrospray ionization (ESI). Multiple reaction monitoring (MRM) is used to determine analyte and internal standard (IS) responses. […] The data is calculated using the peak area ratio (PAR) semi-quantitative method.
Target sequence in this assay (P21589 27-574, species assumed): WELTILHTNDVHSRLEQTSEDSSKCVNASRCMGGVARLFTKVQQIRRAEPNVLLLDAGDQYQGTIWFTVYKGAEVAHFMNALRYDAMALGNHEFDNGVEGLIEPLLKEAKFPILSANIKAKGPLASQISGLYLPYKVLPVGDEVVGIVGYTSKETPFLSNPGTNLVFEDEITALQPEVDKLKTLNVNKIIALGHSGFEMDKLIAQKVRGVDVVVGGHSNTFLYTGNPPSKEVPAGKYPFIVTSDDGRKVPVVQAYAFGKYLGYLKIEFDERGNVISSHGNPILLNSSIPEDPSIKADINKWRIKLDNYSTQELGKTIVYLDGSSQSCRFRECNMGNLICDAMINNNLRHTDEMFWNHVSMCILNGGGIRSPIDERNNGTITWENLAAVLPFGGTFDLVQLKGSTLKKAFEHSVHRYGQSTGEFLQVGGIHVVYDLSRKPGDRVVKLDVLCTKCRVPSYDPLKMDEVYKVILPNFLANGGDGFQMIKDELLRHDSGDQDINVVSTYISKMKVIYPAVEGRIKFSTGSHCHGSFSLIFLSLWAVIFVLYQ

Series [3] addresses T1, CD73. In words: CD73 cellular assay (MDA-MB-231 cells, malachite readout). It counts as cell-based. Particulars: AMP substrate, 45 min, read-out: Cellular IC50 against CD73. The method, then:
After incubating with compounds for 30 minutes, 40 μL of AMP working solution (200 μM AMP in assay buffer) was added into each well in the assay plate. The assay plate was then incubated in a 5% CO2 incubator (Thermo Fisher Scientific) at 37° C. for 45 min. After the reaction was completed, 50 μL of the supernatants was collected and transferred into a new 384 well plate. 10 μL of Malachite A was added to each well in the assay plate and incubated for 10 minutes. 10 μL of Malachite B was then added to each corresponding well of the plate and incubated for 30 minutes.
Target sequence in this assay (P21589 27-574): as the sequence (P21589 27-574, species assumed) above

One may read the IC50 as the point on the concentration scale where inhibition reaches its midpoint. As for `Cn1nc(C2CC2)c2cc(-c3c[nH]c(=O)[nH]c3=O)nnc21` [Example 2, 5-(3-cyclopropyl-1-methyl-pyrazolo[3,4-c]pyridazin-5-yl)-1H-pyrimidine-2,4-dione], in series [1], the “CL (h)” value came out at 8.52 mL/min/kg. Moreover, the concentration for half-maximal inhibition (IC50) was 0.89 nM in series [2] and 10.2 nM in series [3].

For `Cn1nc(-c2ccnn2Cc2ccccc2)c2cc(-c3c[nH]c(=O)[nH]c3=O)nnc21` [Example 7, 5-[3-(2-benzylpyrazol-3-yl)-1-methyl-pyrazolo[3,4-c]pyridazin-5-yl]-1H-pyrimidine-2,4-dione], in series [1], the “CL (h)” value was 9.85 mL/min/kg. The values for the IC50 in series [2] and in series [3] were 1.94 nM and 11.4 nM, respectively.

On to `CC(C)Oc1nn(C)c2nnc(-c3c[nH]c(=O)[nH]c3=O)cc12` [Example 8, 5-(3-isopropoxy-1-methyl-pyrazolo[3,4-c]pyridazin-5-yl)-1H-pyrimidine-2,4-dione], for which the values for the IC50 in series [2] and in series [3] were 3.88 nM and 13.3 nM, respectively.

Turning to `CC(Oc1nn(C)c2nnc(-c3c[nH]c(=O)[nH]c3=O)cc12)c1ccccc1Cl` (stereo not drawn) [Example 13, 5-[3-[1-(2-chlorophenyl)ethoxy]-1-methyl-pyrazolo[3,4-c]pyridazin-5-yl]-1H-pyrimidine-2,4-dione], the “CL (h)” value in series [1] came to 7.84 mL/min/kg. Further, in series [3], the IC50 came to 5.5 nM.

Regarding `CC(Oc1nn(C)c2nnc(-c3c[nH]c(=O)[nH]c3=O)cc12)c1cccc(Cl)c1` (stereo not drawn) [Example 14, 5-[3-[1-(3-chlorophenyl)ethoxy]-1-methyl-pyrazolo[3,4-c]pyridazin-5-yl]-1H-pyrimidine-2,4-dione], the “CL (h)” value in series [1] stood at 7.01 mL/min/kg. The IC50 in series [3] was determined as 4 nM.

`CC(Oc1nn(C)c2nnc(-c3c[nH]c(=O)[nH]c3=O)cc12)c1ccc(Cl)cc1` (stereo not drawn) [Example 15, 5-[3-[1-(4-chlorophenyl)ethoxy]-1-methyl-pyrazolo[3,4-c]pyridazin-5-yl]-1H-pyrimidine-2,4-dione]: in series [1], the “CL (h)” value was determined as 6.15 mL/min/kg. In series [3], the IC50 was determined as 4.1 nM.

Regarding `CC(Oc1nn(C)c2nnc(-c3c[nH]c(=O)[nH]c3=O)cc12)c1ccc(F)cc1` (stereo not drawn) [Example 16, 5-[3-[1-(4-fluorophenyl)ethoxy]-1-methyl-pyrazolo[3,4-c]pyridazin-5-yl]-1H-pyrimidine-2,4-dione], the “CL (h)” value in series [1] is on record as 6.15 mL/min/kg. Further, in series [3], the IC50 amounted to 3.5 nM.

Regarding `CC(Oc1nn(C)c2nnc(-c3c[nH]c(=O)[nH]c3=O)cc12)c1ccccn1` (stereo not drawn) [Example 17, 5-[1-methyl-3-[1-(2-pyridyl)ethoxy]pyrazolo[3,4-c]pyridazin-5-yl]-1H-pyrimidine-2,4-dione], the “CL (h)” value in series [1] came to 6.15 mL/min/kg. In series [3], the IC50 worked out at 3.7 nM.

Take `CC(Oc1nn(C)c2nnc(-c3c[nH]c(=O)[nH]c3=O)cc12)c1cccnc1` (stereo not drawn) [Example 18, 5-[1-methyl-3-[1-(3-pyridyl)ethoxy]pyrazolo[3,4-c]pyridazin-5-yl]-1H-pyrimidine-2,4-dione]: the “CL (h)” value in series [1] is 6.22 mL/min/kg. Also, the concentration for half-maximal inhibition (IC50) in series [3] turned out to be 4.3 nM.

As to `CC(Oc1nn(C)c2nnc(-c3c[nH]c(=O)[nH]c3=O)cc12)c1ccncc1` (stereo not drawn) [Example 19, 5-[1-methyl-3-[1-(4-pyridyl)ethoxy]pyrazolo[3,4-c]pyridazin-5-yl]-1H-pyrimidine-2,4-dione], the “CL (h)” value in series [1] came to 9.03 mL/min/kg. Further, in series [3], the IC50 turned out to be 3.9 nM.

On to `CC(Oc1nn(C)c2nnc(-c3c[nH]c(=O)[nH]c3=O)cc12)c1cccc(C(F)(F)F)c1` (stereo not drawn) [Example 20, 5-[1-methyl-3-[1-[3-(trifluoromethyl)phenyl]ethoxy]pyrazolo[3,4-c]pyridazin-5-yl]-1H-pyrimidine-2,4-dione], for which, in series [1], the “CL (h)” value worked out at 6.36 mL/min/kg. The IC50 in series [3] came out at 6.9 nM.

In the case of `Cc1nc(C(C)Oc2nn(C)c3nnc(-c4c[nH]c(=O)[nH]c4=O)cc23)cs1` (stereo not drawn) [Example 21, 5-[1-methyl-3-[1-(2-methylthiazol-4-yl)ethoxy]pyrazolo[3,4-c]pyridazin-5-yl]-1H-pyrimidine-2,4-dione], in series [1], the “CL (h)” value stood at 6.32 mL/min/kg. Also, the half-inhibitory concentration (IC50) in series [2] is 0.65 nM; in series [3] it was 4.6 nM.

Consider `Cc1cnc(C(C)Oc2nn(C)c3nnc(-c4c[nH]c(=O)[nH]c4=O)cc23)s1` (stereo not drawn) [Example 22, 5-[1-methyl-3-[1-(5-methylthiazol-2-yl)ethoxy]pyrazolo[3,4-c]pyridazin-5-yl]-1H-pyrimidine-2,4-dione], for which the “CL (h)” value in series [1] was 8.14 mL/min/kg. For the same molecule, the half-maximal inhibitory concentration (IC50) in series [3] turned out to be 3.9 nM.

With `CC(Oc1nn(C)c2nnc(-c3c[nH]c(=O)[nH]c3=O)cc12)c1ccnn1C` (stereo not drawn) [Example 24, 5-[1-methyl-3-[1-(2-methylpyrazol-3-yl)ethoxy]pyrazolo[3,4-c]pyridazin-5-yl]-1H-pyrimidine-2,4-dione], the “CL (h)” value in series [1] came to 6.26 mL/min/kg. For the same molecule, in series [3], the IC50 is 19.6 nM.

Consider `CC(Oc1nn(C)c2nnc(-c3c[nH]c(=O)[nH]c3=O)cc12)c1nc2ccccc2o1` (stereo not drawn) [Example 25, 5-[3-[1-(1,3-benzoxazol-2-yl)ethoxy]-1-methyl-pyrazolo[3,4-c]pyridazin-5-yl]-1H-pyrimidine-2,4-dione], for which, in series [1], the “CL (h)” value is given as 8.85 mL/min/kg. Further, the IC50 in series [3] came out at 8 nM.

As for `Cn1nc(O[C@H](c2ccccn2)C(F)(F)F)c2cc(-c3c[nH]c(=O)[nH]c3=O)nnc21` [Example 29A, 5-[1-methyl-3-[(1R)-2,2,2-trifluoro-1-(2-pyridyl)ethoxy]pyrazolo[3,4-c]pyridazin-5-yl]-1H-pyrimidine-2,4-dione], the “CL (h)” value in series [1] is reported as 6.15 mL/min/kg. The IC50 amounted to 0.38 nM in series [2] and 3.4 nM in series [3].

With `C[C@H](Nc1nn(C)c2nnc(-c3c[nH]c(=O)[nH]c3=O)cc12)c1ccccc1` [Example 37, 5-[1-methyl-3-[[(1S)-1-phenylethyl]amino]pyrazolo[3,4-c]pyridazin-5-yl]-1H-pyrimidine-2,4-dione], in series [1], the “CL (h)” value is given as 6.15 mL/min/kg. In series [3], the IC50 amounted to 4 nM.

On to `Cc1ccnc([C@H](C)Oc2nn(C)c3nnc(-c4c[nH]c(=O)[nH]c4=O)cc23)c1` [Example 42, 5-[1-methyl-3-[(1S)-1-(4-methyl-2-pyridyl)ethoxy]pyrazolo[3,4-c]pyridazin-5-yl]-1H-pyrimidine-2,4-dione], for which the “CL (h)” value in series [1] was found to be 7.78 mL/min/kg. In addition, in series [3], the IC50 is 4.1 nM.

Consider `C[C@H](Oc1nn(C)c2nnc(-c3c[nH]c(=O)[nH]c3=O)cc12)c1ccc(F)cn1` [Example 43, 5-[3-[(1S)-1-(5-fluoro-2-pyridyl)ethoxy]-1-methyl-pyrazolo[3,4-c]pyridazin-5-yl]-1H-pyrimidine-2,4-dione], for which, in series [1], the “CL (h)” value was determined as 6.15 mL/min/kg. The IC50 in series [3] worked out at 3.7 nM.

For `C[C@H](Oc1nn(C)c2nnc(-c3c[nH]c(=O)[nH]c3=O)cc12)c1cccc(Cl)n1` [Example 44, 5-[3-[(1S)-1-(6-chloro-2-pyridyl)ethoxy]-1-methyl-pyrazolo[3,4-c]pyridazin-5-yl]-1H-pyrimidine-2,4-dione], in series [1], the “CL (h)” value was found to be 6.15 mL/min/kg. Besides, the IC50 in series [3] came to 2.3 nM.

For the molecule `C[C@H](Oc1nn(C)c2nnc(-c3c[nH]c(=O)[nH]c3=O)cc12)c1ccc(Cl)nn1` [Example 45, 5-[3-[(1S)-1-(6-chloropyridazin-3-yl)ethoxy]-1-methyl-pyrazolo[3,4-c]pyridazin-5-yl]-1H-pyrimidine-2,4-dione], in series [1], the “CL (h)” value turned out to be 6.15 mL/min/kg. For the same molecule, in series [3], the IC50 amounted to 9.9 nM.

For `O=c1[nH]cc(-c2cc3c(C4CCC4)noc3nn2)c(=O)[nH]1` [Example 46, 5-(3-cyclobutylisoxazolo[5,4-c]pyridazin-5-yl)-1H-pyrimidine-2,4-dione], the IC50 was found to be 2 nM in series [2] and 10.4 nM in series [3].

The values above are taken from US20260055113A1, “HETEROARYL COMPOUNDS FOR THE TREATMENT OF CANCER” (Hoffmann-La Roche Inc., priority 2022, published 2026).
